Assay results taken from patent US10561606B2, “Injectable long-acting local anesthetic semi-solid gel formulations” (Mira Pharma Corporation, priority 2017, dated 2020).
Where a name gives a salt, the structure may show the parent alone.

Assays:
[1] = BASF MSDS sheet; cited from earlier work
sciatic nerve = settings: cited from earlier work
[2] = cited from earlier work
[3] = Solubility/loading of local anesthetic in oils, castor oil and semi-solid vehicle; format: physicochemical
[4] = limited by low solubility in the vehicle; cited from earlier work
[5] = in poly(lactic acid-co-castor oil), single injection

Q: With `CCCCN1CCCCC1C(=O)Nc1c(C)cccc1C` (stereo not drawn) [bupivacaine hydrochloride] as the compound, how does the water solubility [1] read?
A: Its water solubility is 600 mg/mL.

Q: Which “sciatic nerve blockade prolonged to” value (sciatic nerve; 10% (w/v) in poly(sebacic-co-ricinoleic acid), from 8 hours) does the source give for `CCCCN1CCCCC1C(=O)Nc1c(C)cccc1C` (stereo not drawn) [bupivacaine] here?
A: The value was 30 h.

Q: And the “duration of nerve block” value (sciatic nerve; in poly(lactic acid-co-castor oil) at 10% (w/v))?
A: The value was 1 to 2 days.

Q: And the “duration of sensory blockade” value (sciatic nerve; in poly(lactic acid-co-castor oil) at 15% (w/v))?
A: The value was 96 h.

Q: What about the motor blockade (sciatic nerve; [5]) of the same compound?
A: Its motor blockade is 64 h.

Q: What about the sensory blockade (sciatic nerve; [5]) of the same compound?
A: Its sensory blockade is 96 h.

Q: And the “release of bupivacaine from the oil” value ([2]; fractionated coconut oil, in less than two hours, rotating dialysis cell)?
A: Its value is 80%.

Q: What about the “stored bupivacaine released during one week” value ([2]; from poly(lactic acid-co-castor oil)) of the same compound?
A: The value was 60%.

Q: And the “incorporated drug released over one week in vitro” value ([2]; from poly(sebacic-co-ricinoleic acid))?
A: The value was 70%.

Q: What about the “solubility in corn oil” value [3] of the same compound?
A: Its value is 2.8 wt %.

Q: And the “solubility in olive oil” value [3]?
A: Its value is 2.5 wt %.

Q: What about the “solubility in sesame oil” value [3] of the same compound?
A: Its value is 3.0 wt %.

Q: What about the “solubility in typical vegetable oils” value [3] of the same compound?
A: The value was “less than 3 wt %”.

Q: And the “solubility in vegetable oil” value [3]?
A: Its value is 2.5 wt %.

Q: For `Cc1cccc(C)c1NC(=O)C1CCCCN1C` (stereo not drawn) [mepivacaine], which “amount that can be loaded into polyorthoester vehicle” value [4] is on record?
A: Its value is “about 3 wt %”.
